Results published in PMC8745178, “Methyl 2-Halo-4-Substituted-5-Sulfamoyl-Benzoates as High Affinity and Selective Inhibitors of Carbonic Anhydrase IX” (International Journal of Molecular Sciences, 2021).
Values joined by “and” are separate entries in the source; they are usually repeats but may differ in a detail not shown here. Equal entries are not always repeated.

Assays:
[1] = target: CAXIII (Homo sapiens, UniProt Q8N1Q1); experiment: fluorescent thermal shift assay (FTSA), CAXIII; type: binding; conditions: 37 °C; for ΔGobs CAXIII: converted from Kd_obs, pH 7.0, FTSA; for ΔGintr CAXIII: converted from Kd_intr, independent of pH
Sequence of CAXIII (Q8N1Q1 whole entry): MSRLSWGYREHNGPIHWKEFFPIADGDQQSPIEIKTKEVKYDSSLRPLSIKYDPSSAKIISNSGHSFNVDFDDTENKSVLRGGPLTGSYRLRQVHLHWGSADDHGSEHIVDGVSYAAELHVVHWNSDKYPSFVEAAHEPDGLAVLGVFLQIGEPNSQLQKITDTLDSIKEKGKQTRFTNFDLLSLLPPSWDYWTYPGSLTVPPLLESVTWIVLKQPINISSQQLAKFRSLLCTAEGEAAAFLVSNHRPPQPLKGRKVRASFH

[2] = target: CAXIV (Homo sapiens, UniProt Q9ULX7); experiment: fluorescent thermal shift assay (FTSA), CAXIV; type: binding; conditions: 37 °C; for ΔGintr CAXIV: converted from Kd_intr, independent of pH; for ΔGobs CAXIV: converted from Kd_obs, pH 7.0, FTSA
Sequence of CAXIV (Q9ULX7 16-337): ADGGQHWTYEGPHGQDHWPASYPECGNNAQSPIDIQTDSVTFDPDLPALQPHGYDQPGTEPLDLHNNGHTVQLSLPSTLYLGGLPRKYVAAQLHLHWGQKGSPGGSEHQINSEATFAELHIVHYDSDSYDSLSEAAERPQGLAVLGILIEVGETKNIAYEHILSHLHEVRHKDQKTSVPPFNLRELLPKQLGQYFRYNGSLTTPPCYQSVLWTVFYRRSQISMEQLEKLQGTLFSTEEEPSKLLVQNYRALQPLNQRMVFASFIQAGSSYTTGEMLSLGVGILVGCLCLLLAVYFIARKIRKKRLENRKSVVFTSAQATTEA

[3] = target: CAVB (Homo sapiens, UniProt Q9Y2D0); experiment: fluorescent thermal shift assay (FTSA), CAVB; type: binding; conditions: 37 °C; for ΔGintr CAVB: converted from Kd_intr, independent of pH; for ΔGobs CAVB: converted from Kd_obs, pH 7.0, FTSA
Sequence of CAVB (Q9Y2D0 34-317): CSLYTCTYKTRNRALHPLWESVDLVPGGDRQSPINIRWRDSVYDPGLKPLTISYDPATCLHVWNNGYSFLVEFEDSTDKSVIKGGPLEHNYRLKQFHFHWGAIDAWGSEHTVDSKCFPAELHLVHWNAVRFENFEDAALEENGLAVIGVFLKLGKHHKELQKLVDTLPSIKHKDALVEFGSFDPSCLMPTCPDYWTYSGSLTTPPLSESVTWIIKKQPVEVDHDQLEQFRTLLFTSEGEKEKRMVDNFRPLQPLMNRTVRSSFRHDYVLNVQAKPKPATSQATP

[4] = determination of pKa of the sulfonamide group by UV-VIS spectra at various pH; type: physicochemical; conditions: for f RSO2NH-, fraction of deprotonated sulfonamide: at pH 7.0, calculated from pKa
[5] = target: CAI (Homo sapiens, UniProt P00915); experiment: fluorescent thermal shift assay (FTSA), CAI; type: binding; conditions: 37 °C; for ΔGintr CAI: converted from Kd_intr, independent of pH; for ΔGobs CAI: converted from Kd_obs, pH 7.0, FTSA
Sequence of CAI (P00915 whole entry): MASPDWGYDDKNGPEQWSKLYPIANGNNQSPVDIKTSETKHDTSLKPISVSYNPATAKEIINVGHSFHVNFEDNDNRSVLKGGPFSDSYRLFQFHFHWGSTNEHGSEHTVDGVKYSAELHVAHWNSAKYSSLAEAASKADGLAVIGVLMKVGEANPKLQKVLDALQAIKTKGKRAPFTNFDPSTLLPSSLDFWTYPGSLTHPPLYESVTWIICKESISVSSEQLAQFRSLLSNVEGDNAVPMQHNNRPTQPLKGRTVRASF

[6] = target: CAVA (Homo sapiens, UniProt P35218); experiment: fluorescent thermal shift assay (FTSA), CAVA; type: binding; conditions: 37 °C; for ΔGintr CAVA: converted from Kd_intr, independent of pH; for ΔGobs CAVA: converted from Kd_obs, pH 7.0, FTSA
Sequence of CAVA (P35218 39-305): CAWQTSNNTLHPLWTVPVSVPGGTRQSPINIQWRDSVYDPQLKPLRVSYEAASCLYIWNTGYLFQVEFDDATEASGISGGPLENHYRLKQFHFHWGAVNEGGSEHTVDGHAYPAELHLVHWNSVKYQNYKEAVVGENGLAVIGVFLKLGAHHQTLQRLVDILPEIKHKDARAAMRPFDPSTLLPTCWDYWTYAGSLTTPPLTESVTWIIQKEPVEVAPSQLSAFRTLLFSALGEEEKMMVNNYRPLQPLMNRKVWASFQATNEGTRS

[7] = target: CAIX (Homo sapiens, UniProt Q16790); experiment: fluorescent thermal shift assay (FTSA), CAIX; type: binding; conditions: for ΔGobs CAIX: pH 7
[8] = target: T1, CAXII (Homo sapiens, UniProt O43570)
T1 sequence (O43570 25-354): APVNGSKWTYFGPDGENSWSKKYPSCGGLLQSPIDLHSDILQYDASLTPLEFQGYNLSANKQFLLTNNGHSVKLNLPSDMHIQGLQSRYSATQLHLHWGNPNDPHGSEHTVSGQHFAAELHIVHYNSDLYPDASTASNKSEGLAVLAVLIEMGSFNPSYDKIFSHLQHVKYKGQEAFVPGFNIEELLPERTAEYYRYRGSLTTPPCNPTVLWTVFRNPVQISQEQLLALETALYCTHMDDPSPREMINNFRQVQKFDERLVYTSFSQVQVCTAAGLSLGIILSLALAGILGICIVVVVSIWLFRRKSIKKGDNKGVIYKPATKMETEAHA

[9] = 37 °C
[10] = target: CAII (Homo sapiens, UniProt P00918); experiment: fluorescent thermal shift assay (FTSA), CAII; type: binding; conditions: 37 °C; for ΔGintr CAII: converted from Kd_intr, independent of pH; for ΔGobs CAII: converted from Kd_obs, pH 7.0, FTSA
[11] = target: CAVI (Homo sapiens, UniProt P23280); experiment: fluorescent thermal shift assay (FTSA), CAVI; type: binding; conditions: 37 °C; for ΔGintr CAVI: converted from Kd_intr, independent of pH; for ΔGobs CAVI: converted from Kd_obs, pH 7.0, FTSA
Sequence of CAVI (P23280 18-308): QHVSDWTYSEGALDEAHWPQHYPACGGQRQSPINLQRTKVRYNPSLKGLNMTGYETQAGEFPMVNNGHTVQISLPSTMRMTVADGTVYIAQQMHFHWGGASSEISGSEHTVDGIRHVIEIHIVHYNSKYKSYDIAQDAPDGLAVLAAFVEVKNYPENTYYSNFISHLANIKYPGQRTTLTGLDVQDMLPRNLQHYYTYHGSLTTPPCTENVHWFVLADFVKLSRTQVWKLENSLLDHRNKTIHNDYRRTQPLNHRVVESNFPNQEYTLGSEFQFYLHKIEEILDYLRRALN

[12] = target: CAVII (Homo sapiens, UniProt P43166); experiment: fluorescent thermal shift assay (FTSA), CAVII; type: binding; conditions: 37 °C; for ΔGintr CAVII: converted from Kd_intr, independent of pH; for ΔGobs CAVII: converted from Kd_obs, pH 7.0, FTSA
Sequence of CAVII (P43166 whole entry): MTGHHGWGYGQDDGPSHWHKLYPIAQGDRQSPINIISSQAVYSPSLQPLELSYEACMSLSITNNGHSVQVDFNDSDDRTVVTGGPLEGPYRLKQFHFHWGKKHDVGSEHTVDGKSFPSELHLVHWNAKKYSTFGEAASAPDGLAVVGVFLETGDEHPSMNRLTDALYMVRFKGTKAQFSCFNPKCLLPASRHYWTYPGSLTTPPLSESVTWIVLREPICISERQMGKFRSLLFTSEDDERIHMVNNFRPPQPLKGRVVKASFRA

[13] = solubility observed visually and in absorption spectra; type: physicochemical; parameters: key: low solubility, LS
[14] = target: CAIV (Homo sapiens, UniProt P22748); experiment: fluorescent thermal shift assay (FTSA), CAIV; type: binding; conditions: 37 °C; for ΔGintr CAIV: converted from Kd_intr, independent of pH; for ΔGobs CAIV: converted from Kd_obs, pH 7.0, FTSA
Sequence of CAIV (P22748 19-312): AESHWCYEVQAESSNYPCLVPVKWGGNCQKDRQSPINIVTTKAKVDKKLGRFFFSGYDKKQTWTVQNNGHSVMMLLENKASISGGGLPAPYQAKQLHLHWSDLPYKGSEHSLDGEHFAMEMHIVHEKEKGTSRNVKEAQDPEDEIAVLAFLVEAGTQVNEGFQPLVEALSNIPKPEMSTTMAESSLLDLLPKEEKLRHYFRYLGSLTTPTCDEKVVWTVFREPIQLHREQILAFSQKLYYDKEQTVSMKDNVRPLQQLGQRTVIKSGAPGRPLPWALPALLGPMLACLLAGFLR

[15] = target: T1, CAXII; experiment: fluorescent thermal shift assay (FTSA), CAXII; type: binding; conditions: 37 °C; for ΔGintr CAXII: converted from Kd_intr, independent of pH; for ΔGobs CAXII: converted from Kd_obs, pH 7.0, FTSA
[16] = target: CAIII (Homo sapiens, UniProt P07451); experiment: fluorescent thermal shift assay (FTSA), CAIII; type: binding; conditions: 37 °C; for ΔGintr CAIII: converted from Kd_intr, independent of pH; for ΔGobs CAIII: converted from Kd_obs, pH 7.0, FTSA
Sequence of CAIII (P07451 whole entry): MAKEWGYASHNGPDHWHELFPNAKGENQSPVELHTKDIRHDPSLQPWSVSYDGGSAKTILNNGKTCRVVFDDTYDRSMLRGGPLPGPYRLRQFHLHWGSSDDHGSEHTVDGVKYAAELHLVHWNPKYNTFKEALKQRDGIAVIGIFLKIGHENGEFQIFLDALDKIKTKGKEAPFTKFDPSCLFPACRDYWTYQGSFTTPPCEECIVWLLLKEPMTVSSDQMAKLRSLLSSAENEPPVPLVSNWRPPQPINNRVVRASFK

Row | Compound | ΔGobs CAXIII [1] [kcal/mol] | ΔGintr CAXIV [2] [kcal/mol] | ΔGobs CAXIV [2] [kcal/mol] | ΔGintr CAVB [3] [kcal/mol] | ΔGobs CAVB [3] [kcal/mol] | f RSO2NH-, fraction of deprotonated sulfonamide [4] | ΔGintr CAI [5] [kcal/mol] | ΔGobs CAI [5] [kcal/mol] | ΔGintr CAVA [6] [kcal/mol] | ΔGobs CAVA [6] [kcal/mol] | ΔGintr CAIX [7] [kcal/mol] | ΔGobs CAIX [7] [kcal/mol] | ΔGintr CAII [10] [kcal/mol] | ΔGobs CAII [10] [kcal/mol] | ΔGintr CAVI [11] [kcal/mol] | ΔGobs CAVI [11] [kcal/mol] | ΔGintr CAVII [12] [kcal/mol] | ΔGobs CAVII [12] [kcal/mol] | solubility [13] | ΔGintr CAXII [15] [kcal/mol] | other results
1 | COC(=O)c1cc(S(N)(=O)=O)c(SCCc2ccccc2)cc1Cl [Compound 3d, Methyl 2-chloro-4-[(2-phenylethyl)sulfanyl]-5-sulfamoylbenzoate] | -10.5 | -14.7 | -10.4 | -11.2 | -7.1 | 0.3% and 0.25% | -10.7 | -6.93 | -9.54 | -5.59 | -15.7 | -11.2 | -13.8 | -9.61 | -14 | -8.8 | -14.2 | -9.94 | – | – | pKa ([4]; calculated from spectra at various pH, 37 °C): 9.6; ΔHintr CAXII ([8]; intrinsic, 37 °C, independent of pH and buffer): -12 kcal/mol; ΔHobs CAXII ([8]; observed, sodium phosphate buffer pH 7.0, 37 °C, ITC): -6.19 kcal/mol; Δp_RSO2NH2H, protonation enthalpy of sulfonamide group [9]: -9.8 kcal/mol
2 | COC(=O)c1cc(S(N)(=O)=O)c(Cl)cc1Sc1ccccc1 [Compound 5a, Methyl 4-chloro-2-(phenylsulfanyl)-5-sulfamoylbenzoate] | -10.9 | -14.9 | -10.9 | -13.2 | -9.37 | 0.4% | -11.2 | -7.77 | ≥ -8.91 | ≥ -5.26 | -16.4 | -12.2 | -14.5 | -10.6 | -14.4 | -9.51 | -14.4 | -10.3 | LS | -15.7 | ΔGintr CAIV [14]: -15.3 kcal/mol; ΔGobs CAIV [14]: -11.1 kcal/mol; ΔGobs CAXII [15]: -11.7 kcal/mol
3 | COC(=O)c1cc(S(N)(=O)=O)c(Br)cc1Sc1ccccc1 [Compound 6a, Methyl 4-bromo-2-(phenylsulfanyl)-5-sulfamoylbenzoate] | -11.1 | -15.2 | -11.2 | -14.5 | -10.7 | 0.4% | -11.4 | -7.96 | -9.44 | -5.76 | -15.5 | -11.4 | -14 | -10.1 | -13.9 | -9.06 | -13.5 | -9.46 | LS | -14.9 | ΔGintr CAXIII [1]: -14.5 kcal/mol; ΔGintr CAIII [16]: ≥ -9.54 kcal/mol; ΔGobs CAIII [16]: ≥ -5.26 kcal/mol; ΔGintr CAIV [14]: -14.7 kcal/mol; ΔGobs CAIV [14]: -10.5 kcal/mol; ΔGobs CAXII [15]: -10.9 kcal/mol
4 | COC(=O)c1cc(S(N)(=O)=O)c(S(=O)(=O)Cc2ccccc2)cc1Cl [Compound 7c, Methyl 4-benzylsulfonyl-2-chloro-5-sulfamoylbenzoate] | -5.47 | -11.9 | -7.34 | ≥ -9.66 | ≥ -5.26 | 0.2% | ≥ -9.27 | ≥ -5.26 | ≥ -9.46 | ≥ -5.26 | -13.4 | -8.65 | ≥ -9.78 | ≥ -5.28 | -10.9 | -5.5 | ≥ -9.8 | ≥ -5.26 | LS | -11.9 | ΔGintr CAXIII [1]: -9.51 kcal/mol; ΔGintr CAIII [16]: ≥ -10.1 kcal/mol; ΔGobs CAIII [16]: ≥ -5.26 kcal/mol; ΔGintr CAIV [14]: -12.2 kcal/mol; ΔGobs CAIV [14]: -7.43 kcal/mol; ΔGobs CAXII [15]: -7.34 kcal/mol
5 | COC(=O)c1cc(S(N)(=O)=O)c(Cl)cc1SCc1ccccc1 [Compound 5c, Methyl 2-benzylsulfanyl-4-chloro-5-sulfamoylbenzoate] | -9.94 | -14.4 | -10.4 | -12.8 | -8.99 | 0.4% | -11.5 | -8.08 | – | – | -15.3 | -11.1 | -14.5 | -10.6 | – | -9.3 | -13.8 | -9.8 | LS | -13.1 | ΔGintr CAXIII [1]: -13.4 kcal/mol; ΔGintr CAIII [16]: ≥ -9.54 kcal/mol; ΔGobs CAIII [16]: ≥ -5.26 kcal/mol; ΔGobs CAXII [15]: -9.08 kcal/mol
6 | COC(=O)c1cc(S(N)(=O)=O)c(S(=O)(=O)CCc2ccccc2)cc1Cl [Compound 7d, Methyl 2-chloro-4-(2-phenylethylsulfonyl)-5-sulfamoylbenzoate] | -6.6 | ≥ -9.8 | ≥ -5.26 | ≥ -9.66 | ≥ -5.26 | 0.2% | -9.27 | – | ≥ -9.46 | ≥ -5.26 | -12.1 | -7.34 | ≥ -9.73 | ≥ -5.26 | -10.9 | -5.5 | ≥ -9.8 | ≥ -5.26 | LS | -10.9 | ΔGintr CAXIII [1]: -10.6 kcal/mol; ΔGintr CAIII [16]: ≥ -10.1 kcal/mol; ΔGobs CAIII [16]: ≥ -5.26 kcal/mol; ΔGintr CAIV [14]: ≥ -9.99 kcal/mol; ΔGobs CAIV [14]: ≥ -5.26 kcal/mol; ΔGobs CAXII [15]: -6.33 kcal/mol
